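Tested at 5 concentrations; 48 h exposure; 96-well plates; endpoints linearly interpolated, else capped at highest concentration. GI50: concentration for 50% inhibition of growth. TGI is the concentration that stops growth completely.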
Key:
Experiment in all cases: NCI-60 cell line screen, 48 h
786-0 renal = test system: 786-0 renal
A498 renal = test system: A498 renal
A549 NSCLC = test system: A549 NSCLC
ACHN renal = test system: ACHN renal
BT-549 breast = test system: BT-549 breast
CAKI-1 renal = test system: CAKI-1 renal
CCRF-CEM leukemia = test system: CCRF-CEM leukemia
COLO 205 colon = test system: COLO 205 colon
DU-145 prostate = test system: DU-145 prostate
EKVX NSCLC = test system: EKVX NSCLC
HCC-2998 colon = test system: HCC-2998 colon
HCT-116 colon = test system: HCT-116 colon
HCT-15 colon = test system: HCT-15 colon
HL-60(TB) leukemia = test system: HL-60(TB) leukemia
HOP-62 NSCLC = test system: HOP-62 NSCLC
HS 578T breast = test system: HS 578T breast
HT29 colon = test system: HT29 colon
IGROV1 ovarian = test system: IGROV1 ovarian
K-562 leukemia = test system: K-562 leukemia
KM12 colon = test system: KM12 colon
LOX IMVI melanoma = test system: LOX IMVI melanoma
M14 melanoma = test system: M14 melanoma
MALME-3M melanoma = test system: MALME-3M melanoma
MCF7 breast = test system: MCF7 breast
MDA-MB-231 breast = test system: MDA-MB-231 breast
MDA-MB-435 = test system: MDA-MB-435
MOLT-4 leukemia = test system: MOLT-4 leukemia
NCI-H226 lung = test system: NCI-H226 lung
NCI-H23 lung = test system: NCI-H23 lung
NCI-H460 lung = test system: NCI-H460 lung
NCI-H522 lung = test system: NCI-H522 lung
NCI/ADR-RES ovarian = test system: NCI/ADR-RES ovarian
OVCAR-3 ovarian = test system: OVCAR-3 ovarian
OVCAR-4 ovarian = test system: OVCAR-4 ovarian
OVCAR-5 ovarian = test system: OVCAR-5 ovarian
OVCAR-8 ovarian = test system: OVCAR-8 ovarian
PC-3 prostate = test system: PC-3 prostate
RPMI-8226 leukemia = test system: RPMI-8226 leukemia
RXF 393 renal = test system: RXF 393 renal
SF-268 CNS = test system: SF-268 CNS
SF-295 CNS = test system: SF-295 CNS
SF-539 CNS = test system: SF-539 CNS
SK-MEL-2 melanoma = test system: SK-MEL-2 melanoma
SK-MEL-28 melanoma = test system: SK-MEL-28 melanoma
SK-MEL-5 melanoma = test system: SK-MEL-5 melanoma
SK-OV-3 ovarian = test system: SK-OV-3 ovarian
SN12C renal = test system: SN12C renal
SNB-19 CNS = test system: SNB-19 CNS
SNB-75 CNS = test system: SNB-75 CNS
SR leukemia = test system: SR leukemia
SW-620 colon = test system: SW-620 colon
T-47D breast = test system: T-47D breast
TK-10 renal = test system: TK-10 renal
U251 CNS = test system: U251 CNS
UACC-257 melanoma = test system: UACC-257 melanoma
UACC-62 melanoma = test system: UACC-62 melanoma
UO-31 renal = test system: UO-31 renal

For `CC/C=C\C=C/C(=O)N/C=C/CC1Cc2cccc(O)c2C(=O)O1` (centres undefined), the GI50 (786-0 renal) was 25.2 µM, the TGI (786-0 renal) was 73.8 µM and the GI50 (A498 renal) was 20.6 µM. It also gave a TGI (A498 renal) of 59.9 µM, a GI50 (A549 NSCLC) of 34.9 µM and a TGI (A549 NSCLC) of over 100 µM. It also gave a GI50 (ACHN renal) of 22.3 µM, a TGI (ACHN renal) of 52.1 µM and a GI50 (BT-549 breast) of 25.8 µM. For the same compound, the TGI (BT-549 breast) was 87.3 µM, the GI50 (CAKI-1 renal) was 17.3 µM and the TGI (CAKI-1 renal) was 36.3 µM. For the same compound, the GI50 (CCRF-CEM leukemia) was 15 µM, the TGI (CCRF-CEM leukemia) was 39.9 µM and the GI50 (COLO 205 colon) was 20.3 µM. For the same compound, the TGI (COLO 205 colon) was 41.2 µM, the GI50 (DU-145 prostate) was 17.3 µM and the TGI (DU-145 prostate) was 52 µM. It also gave a GI50 (EKVX NSCLC) of 38.8 µM, a TGI (EKVX NSCLC) of over 100 µM and a GI50 (HCC-2998 colon) of 19.2 µM. It also gave a TGI (HCC-2998 colon) of 43.5 µM, a GI50 (HCT-116 colon) of 19.1 µM and a TGI (HCT-116 colon) of 42.2 µM. For the same compound, the GI50 (HCT-15 colon) was 13.6 µM, the TGI (HCT-15 colon) was 42 µM and the GI50 (HL-60(TB) leukemia) was 23.8 µM. It also gave a TGI (HL-60(TB) leukemia) of over 100 µM, a GI50 (HOP-62 NSCLC) of 14.5 µM and a TGI (HOP-62 NSCLC) of 50.5 µM. It also gave a GI50 (HS 578T breast) of 28.9 µM, a TGI (HS 578T breast) of over 100 µM and a GI50 (HT29 colon) of 23.5 µM. For the same compound, the TGI (HT29 colon) was 53.7 µM, the GI50 (IGROV1 ovarian) was 38 µM and the TGI (IGROV1 ovarian) was over 100 µM. It also gave a GI50 (K-562 leukemia) of 11.5 µM, a TGI (K-562 leukemia) of over 100 µM and a GI50 (KM12 colon) of 19.2 µM. It also gave a TGI (KM12 colon) of 72.1 µM, a GI50 (LOX IMVI melanoma) of 13.3 µM and a TGI (LOX IMVI melanoma) of 26.5 µM. For the same compound, the GI50 (M14 melanoma) was 22.7 µM, the TGI (M14 melanoma) was 64.2 µM and the GI50 (MALME-3M melanoma) was 41.5 µM. The TGI (MALME-3M melanoma) was over 100 µM, the GI50 (MCF7 breast) was 3.87 µM and the TGI (MCF7 breast) was 49.4 µM. For the same compound, the GI50 (MDA-MB-231 breast) was 17 µM, the TGI (MDA-MB-231 breast) was 39 µM and the GI50 (MDA-MB-435) was 3 µM. The TGI (MDA-MB-435) was 10.7 µM, the GI50 (MOLT-4 leukemia) was 13.4 µM and the TGI (MOLT-4 leukemia) was 42.2 µM. The GI50 (NCI-H226 lung) was 39.6 µM, the TGI (NCI-H226 lung) was over 100 µM and the GI50 (NCI-H23 lung) was 58.1 µM. For the same compound, the TGI (NCI-H23 lung) was over 100 µM, the GI50 (NCI-H460 lung) was 24.3 µM and the TGI (NCI-H460 lung) was 62.1 µM. It also gave a GI50 (NCI-H522 lung) of 19.5 µM, a TGI (NCI-H522 lung) of 55.2 µM and a GI50 (NCI/ADR-RES ovarian) of 35.5 µM. It also gave a TGI (NCI/ADR-RES ovarian) of over 100 µM, a GI50 (OVCAR-3 ovarian) of 15.1 µM and a TGI (OVCAR-3 ovarian) of 39.7 µM. For the same compound, the GI50 (OVCAR-4 ovarian) was 44.4 µM, the TGI (OVCAR-4 ovarian) was over 100 µM and the GI50 (OVCAR-5 ovarian) was 32.5 µM. It also gave a TGI (OVCAR-5 ovarian) of 99.4 µM, a GI50 (OVCAR-8 ovarian) of 30 µM and a TGI (OVCAR-8 ovarian) of over 100 µM. It also gave a GI50 (PC-3 prostate) of 25.3 µM, a TGI (PC-3 prostate) of over 100 µM and a GI50 (RPMI-8226 leukemia) of 22.2 µM. It also gave a TGI (RPMI-8226 leukemia) of 56.4 µM, a GI50 (RXF 393 renal) of 16.1 µM and a TGI (RXF 393 renal) of 35.8 µM. It also gave a GI50 (SF-268 CNS) of 15.1 µM, a TGI (SF-268 CNS) of 53.3 µM and a GI50 (SF-295 CNS) of 33.1 µM. It also gave a TGI (SF-295 CNS) of over 100 µM, a GI50 (SF-539 CNS) of 13.9 µM and a TGI (SF-539 CNS) of 37.1 µM. The GI50 (SK-MEL-2 melanoma) was 22.9 µM, the TGI (SK-MEL-2 melanoma) was over 100 µM and the GI50 (SK-MEL-28 melanoma) was 17.4 µM. The TGI (SK-MEL-28 melanoma) was 58.7 µM, the GI50 (SK-MEL-5 melanoma) was 5.63 µM and the TGI (SK-MEL-5 melanoma) was 27.3 µM. For the same compound, the GI50 (SK-OV-3 ovarian) was 46.7 µM, the TGI (SK-OV-3 ovarian) was over 100 µM and the GI50 (SN12C renal) was 17.8 µM. The TGI (SN12C renal) was 38.1 µM, the GI50 (SNB-19 CNS) was 32.9 µM and the TGI (SNB-19 CNS) was over 100 µM. For the same compound, the GI50 (SNB-75 CNS) was 16 µM, the TGI (SNB-75 CNS) was over 100 µM and the GI50 (SR leukemia) was 2.22 µM. For the same compound, the TGI (SR leukemia) was 6.2 µM, the GI50 (SW-620 colon) was 13.8 µM and the TGI (SW-620 colon) was 28.2 µM. It also gave a GI50 (T-47D breast) of 36.1 µM, a TGI (T-47D breast) of over 100 µM and a GI50 (TK-10 renal) of 62 µM. For the same compound, the TGI (TK-10 renal) was over 100 µM, the GI50 (U251 CNS) was 23.3 µM and the TGI (U251 CNS) was over 100 µM. It also gave a GI50 (UACC-257 melanoma) of 25.2 µM, a TGI (UACC-257 melanoma) of over 100 µM and a GI50 (UACC-62 melanoma) of 22.6 µM. It also gave a TGI (UACC-62 melanoma) of over 100 µM, a GI50 (UO-31 renal) of 35.4 µM and a TGI (UO-31 renal) of over 100 µM.

— PubChem BioAssay (NCI)
